Reference: patent US8889704B2 (Array BioPharma Inc., priority 2011, dated 2014)
pIC50: −log10 of the molar value. Counter-ions that a name gives are not always drawn.

Experiments:
Assay type in all cases: biochemical
recombinant rat PIM-3 = recombinant rat PIM-3 (Rattus norvegicus, UniProt O70444); assay: PIM-3 Assay (as Example A); conditions: averaged IC50; 30 μM ATP, 3.75 μM PIM2tide, 0.5 nM PIM-3
How it was run: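 33P incorporation from 30 μM [γ-33P]ATP into 3.75 μM PIM2tide by 0.5 nM rat PIM-3, 60 min at 22 °C in pH 7.4 MOPS buffer, read by P81 filter capture and scintillation counting. Compounds tested in 3-fold dilutions up to 10 μM final, 2% DMSO; percent-of-control data fitted by 4-parameter logistic for IC50.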

[1] = biological target: T1, GST-tagged recombinant full-length human Pim-2 (Homo sapiens, UniProt Q9P1W9); assay: PIM-2 Assay (as Example A); conditions: averaged IC50; 4 μM ATP, 1.0 μM PIM2tide, 1.5 nM Pim-2
T1 construct: GST-tagged recombinant full-length human Pim-2; GST
T1 sequence (Q9P1W9 whole entry): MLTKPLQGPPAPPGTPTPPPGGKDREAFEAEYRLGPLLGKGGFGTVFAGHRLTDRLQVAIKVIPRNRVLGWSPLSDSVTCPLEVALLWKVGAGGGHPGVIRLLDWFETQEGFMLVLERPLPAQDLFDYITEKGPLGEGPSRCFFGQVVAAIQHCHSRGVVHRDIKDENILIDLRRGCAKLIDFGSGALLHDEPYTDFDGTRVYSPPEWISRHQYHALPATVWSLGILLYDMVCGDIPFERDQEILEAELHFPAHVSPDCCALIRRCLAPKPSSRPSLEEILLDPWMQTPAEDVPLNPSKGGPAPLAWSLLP
How it was run: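 IC50 was derived by 4-parameter logistic fitting of percent-of-control data over a 10-point, 3-fold series (highest 10 μM, 2% DMSO). Reactions held 1.5 nM GST-Pim-2 (full-length, human), 4 μM [γ-33P]ATP and 1.0 μM PIM2tide for 60 min at 22 °C, pH 7.4; 33P-peptide captured on P81 filters.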

PIM-1 = PIM-1 (Homo sapiens, UniProt P11309); assay: Enzyme PIM-1 Assay ([33P]ATP incorporation into PIM2tide, filter plate); conditions: averaged IC50; 35 μM ATP, 7.5 μM PIM2tide, 0.25 nM PIM-1, 60 min at 22° C.
Sequence of PIM-1 (P11309 whole entry, species assumed): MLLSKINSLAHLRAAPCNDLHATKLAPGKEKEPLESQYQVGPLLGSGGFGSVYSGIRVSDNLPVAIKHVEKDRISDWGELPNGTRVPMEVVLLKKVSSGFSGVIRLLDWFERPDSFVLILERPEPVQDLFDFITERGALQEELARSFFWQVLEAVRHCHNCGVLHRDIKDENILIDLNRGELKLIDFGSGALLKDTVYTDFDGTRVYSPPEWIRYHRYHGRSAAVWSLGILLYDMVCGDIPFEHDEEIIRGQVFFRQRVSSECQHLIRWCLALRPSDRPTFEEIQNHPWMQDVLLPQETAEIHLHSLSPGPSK
How it was run: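 Ten-point, 3-fold dilution series (10 μM top, 2% DMSO final) tested for inhibition of 33P transfer from 35 μM ATP to 7.5 μM PIM2tide by 0.25 nM PIM-1. Reaction 60 min, 22 °C, pH 7.4 MOPS/MgCl2 buffer; phosphocellulose capture, scintillation counting, IC50 where fitted POC equals 50.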

Row | Structure (SMILES) | pIC50 (recombinant rat PIM-3) | pIC50 [1] | pIC50 (PIM-1)
1 | CC(C)(C)C(=O)Nc1ccc2ccc(-c3nnc4ccc([C@@H](N5CC[C@H](N)C5)C(F)(F)F)cn34)nc2c1 [Example 71, N-(2-(6-((R)-1-((S)-3-aminopyrrolidin-1-yl)-2,2,2-trifluoroethyl)-[1,2,4]triazolo[4,3-a]pyridin-3-yl)quinolin-7-yl)pivalamide] | 9.52 | < 7.00 | 9.70
2 | CC(C)Oc1cccc2ccc(-c3nnc4ccc([C@@H](N5C[C@@H](O)[C@H](O)C5)C(F)(F)F)cn34)nc12 [Example 72, (3R,4R)-1-((R)-2,2,2-trifluoro-1-(3-(8-isopropoxyquinolin-2-yl)-[1,2,4]triazolo[4,3-a]pyridin-6-yl)ethyl)pyrrolidine-3,4-diol] | 8.54 | < 7.00 | 9.72
3 | CCc1cccc2ccc(-c3nnc4ccc([C@@H](N5C[C@@H](O)[C@H](O)C5)C(F)(F)F)cn34)nc12 [Example 73, (3R,4R)-1-((R)-1-(3-(8-ethylquinolin-2-yl)-[1,2,4]triazolo[4,3-a]pyridin-6-yl)-2,2,2-trifluoroethyl)pyrrolidine-3,4-diol] | 7.49 | < 7.00 | 9.77
4 | CC(C)(C)c1cccc2ccc(-c3nnc4ccc([C@@H](N5C[C@@H](O)[C@H](O)C5)C(F)(F)F)cn34)nc12 [Example 74, (3R,4R)-1-((R)-1-(3-(8-tert-butylquinolin-2-yl)-[1,2,4]triazolo[4,3-a]pyridin-6-yl)-2,2,2-trifluoroethyl)pyrrolidine-3,4-diol] | 8.17 | 7.39 | 10.05
5 | CC(C)Oc1c(C#N)ccc2ccc(-c3nnc4ccc([C@@H](N5CC[C@H](N)C5)C(F)(F)F)cn34)nc12 [Example 75, 2-(6-((R)-1-((S)-3-aminopyrrolidin-1-yl)-2,2,2-trifluoroethyl)-[1,2,4]triazolo[4,3-a]pyridin-3-yl)-8-isopropoxyquinoline-7-carbonitrile dihydrochloride] | 7.74 | < 7.00 | 8.74
6 | FC(F)(F)[C@H](c1ccc2nnc(-c3ccc4cccc(OCC5CC5)c4n3)n2c1)N1C[C@@H]2C[C@H]1CN2 [Example 76, 2-(6-((S)-1-((1S,4S)-2,5-diazabicyclo[2.2.1]heptan-2-yl)-2,2,2-trifluoroethyl)-[1,2,4]triazolo[4,3-a]pyridin-3-yl)-8-(cyclopropylmethoxy)quinoline dihydrochloride] | 8.44 | 7.28 | 9.40
7 | FC(F)(F)[C@H](c1ccc2nnc(-c3ccc4ccc(C5CC5)cc4n3)n2c1)N1C[C@@H]2C[C@H]1CN2 [Example 77, 2-(6-((S)-1-((1S,4S)-2,5-diazabicyclo[2.2.1]heptan-2-yl)-2,2,2-trifluoroethyl)-[1,2,4]triazolo[4,3-a]pyridin-3-yl)-7-cyclopropylquinoline dihydrochloride] | 9.52 | 8.00 | 9.80
8 | O[C@@H]1CN([C@H](c2ccc3nnc(-c4ccc5cccc(C6CC6)c5n4)n3c2)C(F)(F)F)C[C@H]1O [Example 78, (3R,4R)-1-((R)-1-(3-(8-cyclopropylquinolin-2-yl)-[1,2,4]triazolo[4,3-a]pyridin-6-yl)-2,2,2-trifluoroethyl)pyrrolidine-3,4-diol] | 8.00 | < 7.00 | 9.62
9 | CCOc1cccc2ccc(-c3nnc4ccc([C@@H](N5CC[C@H](N)C5)C(F)(F)F)cn34)nc12 [Example 79, (S)-1-((R)-1-(3-(8-ethoxyquinolin-2-yl)-[1,2,4]triazolo[4,3-a]pyridin-6-yl)-2,2,2-trifluoroethyl)pyrrolidin-3-amine] | 8.52 | 7.24 | 9.80
10 | COc1cccc2ccc(-c3nnc4ccc([C@@H](N5CC[C@H](NCCF)C5)C(F)(F)F)cn34)nc12 [Example 80, (S)—N-(2-fluoroethyl)-1-((R)-2,2,2-trifluoro-1-(3-(8-methoxyquinolin-2-yl)-[1,2,4]triazolo[4,3-a]pyridin-6-yl)ethyl)pyrrolidin-3-amine dihydrochloride] | 7.49 | < 7.00 | 8.19
11 | CC(C)Oc1cccc2ccc(-c3nnc4ccc([C@@H](N5CC[C@H](NCCF)C5)C(F)(F)F)cn34)nc12 [Example 81, (S)—N-(2-fluoroethyl)-1-((R)-2,2,2-trifluoro-1-(3-(8-isopropoxyquinolin-2-yl)-[1,2,4]triazolo[4,3-a]pyridin-6-yl)ethyl)pyrrolidin-3-amine dihydrochloride] | 8.55 | < 7.00 | 9.43
12 | CC(C)(C)NC(=O)c1ccc2ccc(-c3nnc4ccc([C@@H](N5CC[C@H](N)C5)C(F)(F)F)cn34)nc2c1C1CC1 [Example 83, 2-(6-((R)-1-((S)-3-aminopyrrolidin-1-yl)-2,2,2-trifluoroethyl)-[1,2,4]triazolo[4,3-a]pyridin-3-yl)-N-tert-butyl-8-cyclopropylquinoline-7-carboxamide dihydrochloride] | 9.00 | 7.55 | 8.95
13 | N#Cc1ccc2ccc(-c3nnc4ccc([C@@H](N5CC[C@H](N)C5)C(F)(F)F)cn34)nc2c1 [Example 84, 2-(6-((R)-1-((S)-3-aminopyrrolidin-1-yl)-2,2,2-trifluoroethyl)-[1,2,4]triazolo[4,3-a]pyridin-3-yl)quinoline-7-carbonitrile] | 7.92 | < 7.00 | 9.14
14 | CC(C)Oc1cc(F)cc2ccc(-c3nnc4ccc([C@@H](N5CC[C@H](N)C5)C(F)(F)F)cn34)nc12 [Example 86, (S)-1-((R)-2,2,2-trifluoro-1-(3-(6-fluoro-8-isopropoxyquinolin-2-yl)-[1,2,4]triazolo[4,3-a]pyridin-6-yl)ethyl)pyrrolidin-3-amine hydrochloride] | 9.52 | 7.51 | 9.85
15 | CC(C)NC(=O)c1cccc2ccc(-c3nnc4ccc([C@@H](N5CC[C@H](N)C5)C(F)(F)F)cn34)nc12 [Example 87, 2-(6-((R)-1-((S)-3-aminopyrrolidin-1-yl)-2,2,2-trifluoroethyl)-[1,2,4]triazolo[4,3-a]pyridin-3-yl)-N-isopropylquinoline-8-carboxamide dihydrochloride] | < 7.00 | < 7.00 | 7.45
16 | N#Cc1cccc2ccc(-c3nnc4ccc([C@@H](N5CC[C@H](N)C5)C(F)(F)F)cn34)nc12 [Example 88, 2-(6-((R)-1-((S)-3-aminopyrrolidin-1-yl)-2,2,2-trifluoroethyl)-[1,2,4]triazolo[4,3-a]pyridin-3-yl)quinoline-8-carbonitrile dihydrochloride] | 7.74 | < 7.00 | 8.49
17 | N#Cc1cccc2ccc(-c3nnc4ccc([C@@H](N5C[C@@H]6C[C@H]5CN6)C(F)(F)F)cn34)nc12 [Example 89, 2-(6-((R)-1-((1S,4S)-2,5-diazabicyclo[2.2.1]heptan-2-yl)-2,2,2-trifluoroethyl)-[1,2,4]triazolo[4,3-a]pyridin-3-yl)quinoline-8-carbonitrile dihydrochloride] | 7.85 | < 7.00 | 8.27
18 | CC(C)Oc1cccc2ccc(-c3nnc4ccc([C@H](N5CC[C@@](C)(N)C5)C(F)(F)F)cn34)nc12 [Example 90, (R)-3-methyl-1-((S)-2,2,2-trifluoro-1-(3-(8-isopropoxyquinolin-2-yl)-[1,2,4]triazolo[4,3-a]pyridin-6-yl)ethyl)pyrrolidin-3-amine dihydrochloride] | 7.64 | < 7.00 | 8.65
19 | CC(C)Oc1cccc2ccc(-c3nnc4ccc([C@@H](N5CC[C@@](C)(N)C5)C(F)(F)F)cn34)nc12 [Example 91, (R)-3-methyl-1-((R)-2,2,2-trifluoro-1-(3-(8-isopropoxyquinolin-2-yl)-[1,2,4]triazolo[4,3-a]pyridin-6-yl)ethyl)pyrrolidin-3-amine dihydrochloride] | 8.59 | < 7.00 | 9.60
20 | CC(C)Oc1cccc2ccc(-c3nnc4ccc([C@H](N5CC[C@](C)(N)C5)C(F)(F)F)cn34)nc12 [Example 92, (S)-3-methyl-1-((S)-2,2,2-trifluoro-1-(3-(8-isopropoxyquinolin-2-yl)-[1,2,4]triazolo[4,3-a]pyridin-6-yl)ethyl)pyrrolidin-3-amine dihydrochloride] | 9.10 | 7.48 | 9.66
21 | CC(C)Oc1cccc2ccc(-c3nnc4ccc([C@@H](N5CC[C@](C)(N)C5)C(F)(F)F)cn34)nc12 [Example 93, (S)-3-methyl-1-((R)-2,2,2-trifluoro-1-(3-(8-isopropoxyquinolin-2-yl)-[1,2,4]triazolo[4,3-a]pyridin-6-yl)ethyl)pyrrolidin-3-amine dihydrochloride] | 9.05 | 7.08 | 9.70
